The data set in a line: method code SF-HPLC, from DOI: 10.1016/j.ejmech.2014.10.073, PMID: 25462263. The settings on record: pH 7.4.

The text below walks through data of the SangsterLogP compilation.

A word on the logD: it is lipophilicity at a set pH, counting ionised and neutral species.

Take `CCOc1cc(CC(=O)OCCC(F)(F)F)cc(F)c1OCC(=O)N(CC)CC`: the logD came out at 3.1. The same measure for `CCCOC(=O)Cc1cc(OCC)c(OCC(=O)N(CC)CC)cc1F`: 2.72; for `CCOC(=O)Cc1cc(OC)c(OCC(=O)N(CC)CC)cc1F`: 2.07; for `CCOc1cc(CC(=O)OC(C)C)cc(F)c1OCC(=O)N(CC)CC`: 2.46.

With `CCCOC(=O)Cc1cc(F)c(OCC(=O)N(CC)CC)c(OCC)c1`, the log distribution coefficient (logD) was 2.63. Then `CCN(CC)C(=O)COc1c(F)cc(CC(=O)OCCC(F)(F)F)cc1OC`, with 2.81.

The compound `CCOC(=O)Cc1cc(OCC)c(OCC(=O)N(CC)CC)cc1F` gave a logD of 2.57.

As for `CCCOC(=O)Cc1ccc(OCC(=O)N(CC)CC)c(OCC)c1`, the log distribution coefficient (logD) was determined as 2.67. Then `CCOC(=O)Cc1ccc(OCC(=O)N(CC)CC)c(F)c1OC`, with 2.29; and `CCCOc1cc(CC(=O)OC(C)C)c(F)cc1OCC(=O)N(CC)CC`, with 2.95; and `CCN(CC)C(=O)COc1c(F)cc(CC(=O)OCC(F)(F)F)cc1OC`, with 2.51.

`CCCOC(=O)Cc1ccc(OCC(=O)N(CC)CC)c(OC)c1` had a log distribution coefficient (logD) of 2.6.

Consider `CCOc1cc(CC(=O)OCCC(F)(F)F)c(F)cc1OCC(=O)N(CC)CC`, for which the logD is 3.06. In the case of `CCN(CC)C(=O)COc1cc(F)c(CC(=O)OCC(F)(F)F)cc1OC`, the log distribution coefficient (logD) is 2.49. `CCOc1cc(CC(=O)OCC(F)(F)F)c(F)cc1OCC(=O)N(CC)CC` returned a logD of 2.9. `CCOc1cc(CC(=O)OC(C)C)c(F)cc1OCC(=O)N(CC)CC` had a logD of 2.59. The same measure for `CCN(CC)C(=O)COc1ccc(CC(=O)OCCC(F)(F)F)c(OC)c1F`: 2.83; for `CCOC(=O)Cc1cc(F)c(OCC(=O)N(CC)CC)c(OCC)c1`: 2.41.

In the case of `CCOc1cc(CC(=O)OCC(C)C)c(F)cc1OCC(=O)N(CC)CC`, the log distribution coefficient (logD) turned out to be 3.03. Then `CCCOC(=O)Cc1cc(OC)c(OCC(=O)N(CC)CC)cc1F`, with 2.36; and `CCN(CC)C(=O)COc1cc(F)c(CC(=O)OC(C)C)cc1OC`, with 2.19. The same measure for `CCN(CC)C(=O)COc1cc(F)c(CC(=O)OCCC(F)(F)F)cc1OC`: 2.94; for `CCOc1cc(CC(=O)OCC(F)(F)F)cc(F)c1OCC(=O)N(CC)CC`: 2.78.
